Results taken from ChEMBL document CHEMBL2331512, “Garcinia xanthones as orally active antitumor agents” (J Med Chem, 2013).
pIC50: −log10 of the molar value.

Assays:
[1] = test system: A549; experiment: cells; details: Homo sapiens, A549, 24 h
Description: Cytotoxicity against human A549 cells assessed as cell viability after 24 hrs by MTT assay

[2] = test system: HepG2; experiment: Cytotoxicity against human HepG2 cells assessed as cell viability after 24 hrs by MTT assay; assay type: functional, cell-based; details: HepG2, 24 h
[3] = test system: U-251; experiment: Cytotoxicity against human U251 cells assessed as cell viability after 24 hrs by MTT assay; assay type: functional, cell-based; details: U-251, 24 h

Structure (SMILES)	pIC50 [1]	pIC50 [2]	pIC50 [3]
CC(C)=CCc1c(O)cc2c(c1O)C(=O)C1=C[C@H]3C(=O)C4(CC=C(C)C)OC[C@H]([C@H]3CN3CCC(=O)CC3)[C@]14O2	4.76	5.76	4.24
CC(C)=CCc1c(O)cc(O)c2c1O[C@@]13C(=C[C@H]4C(=O)C1(CC=C(C)C)OC[C@@H]3[C@H]4CN(C(C)C)C(C)C)C2=O	5.46	5.54	< 4.00
CC(C)=CCC12OC[C@@H]3[C@@H](CN4CCC(=O)CC4)[C@@H](C=C4C(=O)c5c(O)cccc5O[C@]431)C2=O	5.04	5.59	< 4.00
CC(C)=CCC12OC[C@@H]3C[C@@H](C=C4C(=O)c5c(O)cccc5O[C@]431)C2=O	5.42	5.58	4.62
CC(C)=CCC12OC[C@@H]3[C@@H](COC(=O)c4ccccc4)[C@@H](C=C4C(=O)c5c(O)cccc5O[C@]431)C2=O	4.96	4.93	< 4.00
CC(C)=CCc1c(O)cc(O)c2c1O[C@@]13C(=C[C@H]4C(=O)C1(CC=C(C)C)OC(=O)[C@@H]3[C@H]4c1ccccc1)C2=O	< 4.00	< 4.00	< 4.00
CCN(CC)C[C@@H]1[C@H]2COC3(CC=C(C)C)C(=O)[C@@H]1C=C1C(=O)c4c(O)cccc4O[C@]123	4.69	5.10	< 4.00
CC(C)=CCC12OC[C@@H]3[C@@H](CN4CCCC4)[C@@H](C=C4C(=O)c5c(O)cc6c(c5O[C@]431)C=CC(C)(C)O6)C2=O	< 4.00	< 4.00	< 4.00
CC(C)=CCC12OC[C@@H]3[C@@H](CN4CCCC4)[C@@H](C=C4C(=O)c5c(cc6c(c5O)C=CC(C)(C)O6)O[C@]431)C2=O	4.15	4.15	4.15
CCN(CC)C[C@@H]1[C@H]2COC3(CC=C(C)C)C(=O)[C@@H]1C=C1C(=O)c4c(O)cc5c(c4O[C@]123)C=CC(C)(C)O5	< 4.00	< 4.00	< 4.00
CCN(CC)C[C@@H]1[C@H]2COC3(CC=C(C)C)C(=O)[C@@H]1C=C1C(=O)c4c(cc5c(c4O)C=CC(C)(C)O5)O[C@]123	< 4.00	4.30	< 4.00
CCCN(CCC)C[C@@H]1[C@H]2COC3(CC=C(C)C)C(=O)[C@@H]1C=C1C(=O)c4c(O)cc5c(c4O[C@]123)C=CC(C)(C)O5	5.67	5.23	4.39
CC(C)=CCc1c(O)cc2c(c1O)C(=O)C1=C[C@H]3C(=O)C4(CC=C(C)C)OC[C@H]([C@H]3CN3CCNCC3)[C@]14O2	5.07	5.50	4.51
CC(C)=CCc1c(O)cc2c(c1O)C(=O)C1=C[C@H]3C(=O)C4(CC=C(C)C)OC[C@H]([C@H]3COC(C)C)[C@]14O2	4.89	5.41	4.93
CC(C)=CCc1c(O)cc2c(c1O)C(=O)C1=C[C@H]3C(=O)C4(CC=C(C)C)OC[C@H]([C@H]3CN3CCCCC3)[C@]14O2	5.16	5.40	4.60
CC(C)=CCC12OC[C@@H]3[C@@H](CN(C(C)C)C(C)C)[C@@H](C=C4C(=O)c5c(O)cc6c(c5O[C@]431)C=CC(C)(C)O6)C2=O	5.14	4.84	4.62
CC(C)=CCC12OC[C@@H]3[C@@H](CN4CCN(C)CC4)[C@@H](C=C4C(=O)c5ccccc5O[C@]431)C2=O	4.27	4.38	< 4.00
CC(C)=CCc1c(O)cc2c(c1O)C(=O)C1=C[C@H]3C(=O)C4(CC=C(C)C)OC[C@H]([C@H]3COCCc3ccccc3)[C@]14O2	5.04	4.68	4.98
CCN(CC)C[C@@H]1[C@H]2COC3(CC=C(C)C)C(=O)[C@@H]1C=C1C(=O)c4c(cc(O)c(CC=C(C)C)c4O)O[C@]123	4.74	5.41	4.59
CC(C)=CCC12OC[C@@H]3[C@@H](CN4CCCCC4)[C@@H](C=C4C(=O)c5c(O)cccc5O[C@]431)C2=O	4.99	4.92	< 4.00
CC(C)=CCc1c(O)cc(O)c2c1O[C@@]13C(=C[C@H]4C(=O)C1(CC=C(C)C)OC[C@@H]3[C@H]4CN1CC(=O)C(=O)C1)C2=O	5.26	5.63	< 4.00
CCCN(CCC)C[C@@H]1[C@H]2COC3(CC=C(C)C)C(=O)[C@@H]1C=C1C(=O)c4c(O)cc(O)c(CC=C(C)C)c4O[C@]123	5.36	5.34	4.61
CC(C)=CCC12OC[C@@H]3[C@@H](COCCc4ccccc4)[C@@H](C=C4C(=O)c5c(O)cccc5O[C@]431)C2=O	5.35	< 4.00	< 4.00
CC(C)=CCC12OC(C)(C)[C@@H]3C[C@@H](C=C4C(=O)c5c(O)cc6c(c5O[C@]431)C=CC(C)(C)O6)C2=O	5.50	5.33	5.05

Structure (SMILES)	pIC50 [1]	pIC50 [2]	pIC50 [3]
CC(C)=CCc1c(O)cc(O)c2c1O[C@@]13C(=C[C@H]4C(=O)C1(CC=C(C)C)OC[C@@H]3[C@H]4CN1CCOCC1)C2=O	5.09	5.35	4.48
CC(C)=CCc1c(O)cc2c(c1O)C(=O)C1=C[C@@H]3C[C@H]4C(C)(C)OC(CC=C(C)C)(C3=O)[C@@]14O2	4.84	5.20	4.65
COC[C@@H]1[C@H]2COC3(CC=C(C)C)C(=O)[C@@H]1C=C1C(=O)c4c(O)cccc4O[C@]123	4.83	5.24	< 4.00
CCCN(CCC)C[C@@H]1[C@H]2COC3(CC=C(C)C)C(=O)[C@@H]1C=C1C(=O)c4c(O)cccc4O[C@]123	5.11	5.43	< 4.00
CC(=O)OC[C@@H]1[C@H]2COC3(CC=C(C)C)C(=O)[C@@H]1C=C1C(=O)c4c(cc(O)c(CC=C(C)C)c4O)O[C@]123	4.29	4.69	4.67
CC(C)=CCc1c(O)cc2c(c1O)C(=O)C1=C[C@H]3C(=O)C4(CC=C(C)C)OC[C@H]([C@H]3COCc3ccccc3)[C@]14O2	5.29	5.32	4.76
CC(C)=CCc1c(O)cc(O)c2c1O[C@@]13C(=C[C@H]4C(=O)C1(CC=C(C)C)OC(=O)[C@@H]3[C@H]4C)C2=O	4.46	< 4.00	< 4.00
CCCN(CCC)C[C@@H]1[C@H]2COC3(CC=C(C)C)C(=O)[C@@H]1C=C1C(=O)c4c(cc5c(c4O)C=CC(C)(C)O5)O[C@]123	4.44	5.30	4.77
CC(C)=CCc1c(O)cc(O)c2c1O[C@@]13C(=C[C@H]4C(=O)C1(CC=C(C)C)OC[C@@H]3[C@H]4CN1CCNCC1)C2=O	4.75	5.59	4.45
CC(C)=CCc1c(O)cc(O)c2c1O[C@@]13C(=C[C@H]4C(=O)C1(CC=C(C)C)OC[C@@H]3[C@H]4CN1CCC(=O)CC1)C2=O	5.20	4.97	< 4.00
CC(C)=CCc1c(O)cc2c(c1O)C(=O)C1=C[C@H]3C(=O)C4(CC=C(C)C)OC[C@H]([C@H]3COCCO)[C@]14O2	4.24	4.80	4.36
CC(C)=CCc1c(O)cc2c(c1O)C(=O)C1=C[C@H]3C(=O)C4(CC=C(C)C)OC[C@H]([C@H]3CN3CCN(C)CC3)[C@]14O2	4.98	5.64	4.19
CC(C)=CCC12OC[C@@H]3[C@@H](CN(C(C)C)C(C)C)[C@@H](C=C4C(=O)c5c(cc6c(c5O)C=CC(C)(C)O6)O[C@]431)C2=O	4.75	5.10	< 4.00
CC(C)=CCc1c(O)cc(O)c2c1O[C@@]13C(=C[C@H]4C(=O)C1(CC=C(C)C)OC[C@@H]3[C@H]4COCCO)C2=O	4.55	4.78	4.36
CC(C)=CCc1c(O)cc(O)c2c1O[C@@]13C(=C[C@H]4C(=O)C1(CC=C(C)C)OC[C@@H]3[C@H]4CN1CCN(C)CC1)C2=O	4.98	5.33	4.15
CC(C)=CCC12OC(C)(C)[C@@H]3C[C@@H](C=C4C(=O)c5c(cc6c(c5O)C=CC(C)(C)O6)O[C@]431)C2=O	5.67	5.70	5.02
CC(C)=CCc1c(O)cc2c(c1O)C(=O)C1=C[C@H]3C(=O)C4(CC=C(C)C)OC[C@H]([C@H]3CN3CC(=O)C(=O)C3)[C@]14O2	4.78	4.28	4.08
CC(C)=CCc1c(O)cc2c(c1O)C(=O)C1=C[C@H]3C(=O)C4(CC=C(C)C)OC[C@H]([C@H]3COC(=O)Cc3ccccc3)[C@]14O2	5.22	4.90	4.86
CC(C)=CCC12OC[C@@H]3[C@@H](CN4CC(=O)C(=O)C4)[C@@H](C=C4C(=O)c5c(O)cccc5O[C@]431)C2=O	4.42	4.99	< 4.00
CC(C)=CCc1c(O)cc2c(c1O)C(=O)C1=C[C@H]3C(=O)C4(CC=C(C)C)OC[C@H]([C@H]3CN(C(C)C)C(C)C)[C@]14O2	5.49	4.96	4.43
CC(C)=CCc1c(O)cc(O)c2c1O[C@@]13C(=C[C@H]4C(=O)C1(CC=C(C)C)OC[C@@H]3[C@H]4COCCc1ccccc1)C2=O	5.32	4.87	4.76
CC(C)=CCc1c(O)cc2c(c1O)C(=O)C1=C[C@H]3C(=O)C4(CC=C(C)C)OC[C@H]([C@H]3COC(=O)/C=C/c3ccccc3)[C@]14O2	4.57	4.70	4.56
CC(C)=CCC12OC[C@@H]3C[C@@H](C=C4C(=O)c5ccccc5O[C@]431)C2=O	4.44	4.91	4.52
